Experimental data as given in ChEMBL document CHEMBL3885861, “Open TG-GATES”.

Species on record: Rattus norvegicus
Assay: Open TG-GATES - Regimen: Daily Repeat
Format: toxicity, organism-based, Sprague-Dawley
Set-up: regimen Daily Repeat, gender Male, age 6 weeks
Conditions: in vivo, po, route gavage; for gamma-GTP / ALP / ALT / AST / BUN / CRE / Ca / Cl / DBIL / GLC / IP / K / LDH / Na / PL / RALB / TBIL / TC / TG / TP: tissue Plasma; for KIDNEY_L / KIDNEY_R / KIDNEY_TOTAL: tissue Kidney
[1] = 25 mg/kg, 72 h, dose level Low, time 3 day
[2] = 25 mg/kg, 72 h, tissue Blood, dose level Low, time 3 day
[3] = 25 mg/kg, […], dose level Low, time 7 day
[4] = 25 mg/kg, […], dose level Low, time 14 day
[5] = 25 mg/kg, […], dose level Low, time 28 day
[6] = 25 mg/kg, […], tissue Blood, dose level Low, time 7 day
[7] = 25 mg/kg, […], tissue Blood, dose level Low, time 14 day
[8] = 25 mg/kg, […], tissue Blood, dose level Low, time 28 day

Compound `O=C1CN(/N=C/c2ccc(-c3ccc([N+](=O)[O-])cc3)o2)C(O)=N1` [DANTROLENE] has a gamma-GTP (0 mg/kg, […], dose level Control, time 28 day) of 1.2 IU/L, a TERMINAL_BW [1] of 228.7 g and an APTT [2] of 19.4 s. For the same compound, the Bas [2] was 0%, the Eos [2] was 1% and the Fbg [2] was 221.4 mg/dL. It also gave a Hb [2] of 13.7 g/dL, a Lym [2] of 78% and an MCH [2] of 21.8 pg. It also gave an MCHC [2] of 33.8%, an MCV [2] of 64.6 fL and a Mono [2] of 8.4%. It also gave a Plat [2] of 138.1 x10_4/uL, an RBC [2] of 624.8 x10_4/ul and a Ret [2] of 5.3%. It also gave a WBC [2] of 107 x10_2/uL, a KIDNEY_L [1] of 1.1 g and a KIDNEY_R [1] of 1.1 g. It also gave a KIDNEY_TOTAL [1] of 2.2 g, an ALP [1] of 873.2 IU/L and an ALT [1] of 37.8 IU/L. It also gave an AST [1] of 75 IU/L, a BUN [1] of 19.6 mg/dL and a CRE [1] of 0.6 mg/dL. It also gave a Ca [1] of 10.8 mg/dL, a Cl [1] of 104.4 meq/L and a DBIL [1] of 0.004 mg/dL. The GLC [1] was 194.8 mg/dL, the IP [1] was 6.2 mg/dL and the K [1] was 4.5 meq/L. The LDH [1] was 102.4 IU/L, the Na [1] was 139.8 meq/L and the PL [1] was 151.8 mg/dL. The RALB [1] was 4 g/dL, the TBIL [1] was 0.3 mg/dL and the TC [1] was 73.8 mg/dL. For the same compound, the TG [1] was 122.4 mg/dL, the TP [1] was 5.8 g/dL and the gamma-GTP [1] was 0.6 IU/L. It also gave a TERMINAL_BW [3] of 252.5 g, a TERMINAL_BW [4] of 308.4 g and a TERMINAL_BW [5] of 376.7 g. It also gave an APTT [6] of 16.1 s, a Bas [6] of 0% and an Eos [6] of 1.2%. For the same compound, the Fbg [6] was 215 mg/dL, the Hb [6] was 14.4 g/dL and the Lym [6] was 79%. The MCH [6] was 20.9 pg, the MCHC [6] was 33.9% and the MCV [6] was 61.5 fL. For the same compound, the Mono [6] was 8%, the Plat [6] was 108.3 x10_4/uL and the RBC [6] was 689.4 x10_4/ul. It also gave a Ret [6] of 4.6%, a WBC [6] of 121.3 x10_2/uL and an APTT [7] of 17.2 s. It also gave a Bas [7] of 0%, an Eos [7] of 0.8% and a Fbg [7] of 222.2 mg/dL. The Hb [7] was 14.8 g/dL, the Lym [7] was 85.2% and the MCH [7] was 20.3 pg. It also gave an MCHC [7] of 33.8%, an MCV [7] of 60.1 fL and a Mono [7] of 4.8%. It also gave a Plat [7] of 122.4 x10_4/uL, an RBC [7] of 726.6 x10_4/ul and a Ret [7] of 3.9%. The WBC [7] was 111.4 x10_2/uL, the APTT [8] was 17.2 s and the Bas [8] was 0%. It also gave an Eos [8] of 1%, a Fbg [8] of 211 mg/dL and a Hb [8] of 15.6 g/dL. It also gave a Ht [8] of 45.9%, a Lym [8] of 82% and an MCH [8] of 20 pg. It also gave an MCHC [8] of 34%, an MCV [8] of 58.9 fL and a Mono [8] of 4.8%. For the same compound, the Plat [8] was 112.7 x10_4/uL, the RBC [8] was 779 x10_4/ul and the Ret [8] was 2.9%. For the same compound, the KIDNEY_L [3] was 1.1 g, the KIDNEY_R [3] was 1.2 g and the KIDNEY_TOTAL [3] was 2.3 g. The KIDNEY_L [4] was 1.2 g, the KIDNEY_R [4] was 1.3 g and the KIDNEY_TOTAL [4] was 2.5 g. The KIDNEY_L [5] was 1.4 g, the KIDNEY_R [5] was 1.5 g and the KIDNEY_TOTAL [5] was 2.9 g. It also gave an ALP [3] of 808 IU/L, an ALT [3] of 35 IU/L and an AST [3] of 68.8 IU/L. For the same compound, the BUN [3] was 17 mg/dL, the CRE [3] was 0.6 mg/dL and the Ca [3] was 10.8 mg/dL. The Cl [3] was 107.8 meq/L, the DBIL [3] was 0.014 mg/dL and the GLC [3] was 192.8 mg/dL. The IP [3] was 6.1 mg/dL, the K [3] was 5 meq/L and the LDH [3] was 121.4 IU/L. It also gave a Na [3] of 138.8 meq/L, a PL [3] of 151.4 mg/dL and an RALB [3] of 3.9 g/dL. The TBIL [3] was 0.4 mg/dL, the TC [3] was 77 mg/dL and the TG [3] was 92.6 mg/dL. For the same compound, the TP [3] was 5.7 g/dL, the gamma-GTP [3] was 1 IU/L and the ALP [4] was 770 IU/L. For the same compound, the ALT [4] was 33.2 IU/L, the AST [4] was 69.6 IU/L and the BUN [4] was 18.6 mg/dL. The CRE [4] was 0.6 mg/dL, the Ca [4] was 10.6 mg/dL and the Cl [4] was 104.2 meq/L. It also gave a DBIL [4] of 0.01 mg/dL, a GLC [4] of 198 mg/dL and an IP [4] of 6.1 mg/dL. It also gave a K [4] of 4.3 meq/L, an LDH [4] of 112.8 IU/L and a Na [4] of 141.6 meq/L. For the same compound, the PL [4] was 148.8 mg/dL, the RALB [4] was 3.9 g/dL and the TBIL [4] was 0.3 mg/dL. For the same compound, the TC [4] was 67.8 mg/dL, the TG [4] was 150.4 mg/dL and the TP [4] was 6 g/dL. The gamma-GTP [4] was 0.8 IU/L, the ALP [5] was 601.2 IU/L and the ALT [5] was 28.6 IU/L. It also gave an AST [5] of 55.8 IU/L, a BUN [5] of 18.2 mg/dL and a CRE [5] of 0.5 mg/dL. It also gave a Ca [5] of 10.6 mg/dL, a Cl [5] of 107.2 meq/L and a DBIL [5] of 0.018 mg/dL. The GLC [5] was 179 mg/dL, the IP [5] was 5 mg/dL and the K [5] was 4.3 meq/L. It also gave an LDH [5] of 106.6 IU/L, a Na [5] of 140.4 meq/L and a PL [5] of 154.8 mg/dL. It also gave an RALB [5] of 4 g/dL, a TBIL [5] of 0.3 mg/dL and a TC [5] of 76.4 mg/dL. It also gave a TG [5] of 145.8 mg/dL and a TP [5] of 6.2 g/dL.
